Consider eleven molecules from patent US9206130B2, “Quinoline derivatives as AXL kinase inhibitors” (Max-Planck-Gesellschaft zur Förderung der Wissenschaften …, priority 2008, dated 2015).

Where only a bound is given, the exact number is not on record here.

In data set [1] the target is T1, wild type AXL (wtAXL) receptor tyrosine kinase (Homo sapiens, UniProt P30530).
T1 construct: WtAXL cDNA was cloned into vector pLXSN(ESK) and transfected into Phoenix E packaging cells; expressed in transfected cells; host or cells: NIH3T3 N7 mouse fibroblasts, retrovirally infected (clone 22)
T1 sequence (P30530 26-894): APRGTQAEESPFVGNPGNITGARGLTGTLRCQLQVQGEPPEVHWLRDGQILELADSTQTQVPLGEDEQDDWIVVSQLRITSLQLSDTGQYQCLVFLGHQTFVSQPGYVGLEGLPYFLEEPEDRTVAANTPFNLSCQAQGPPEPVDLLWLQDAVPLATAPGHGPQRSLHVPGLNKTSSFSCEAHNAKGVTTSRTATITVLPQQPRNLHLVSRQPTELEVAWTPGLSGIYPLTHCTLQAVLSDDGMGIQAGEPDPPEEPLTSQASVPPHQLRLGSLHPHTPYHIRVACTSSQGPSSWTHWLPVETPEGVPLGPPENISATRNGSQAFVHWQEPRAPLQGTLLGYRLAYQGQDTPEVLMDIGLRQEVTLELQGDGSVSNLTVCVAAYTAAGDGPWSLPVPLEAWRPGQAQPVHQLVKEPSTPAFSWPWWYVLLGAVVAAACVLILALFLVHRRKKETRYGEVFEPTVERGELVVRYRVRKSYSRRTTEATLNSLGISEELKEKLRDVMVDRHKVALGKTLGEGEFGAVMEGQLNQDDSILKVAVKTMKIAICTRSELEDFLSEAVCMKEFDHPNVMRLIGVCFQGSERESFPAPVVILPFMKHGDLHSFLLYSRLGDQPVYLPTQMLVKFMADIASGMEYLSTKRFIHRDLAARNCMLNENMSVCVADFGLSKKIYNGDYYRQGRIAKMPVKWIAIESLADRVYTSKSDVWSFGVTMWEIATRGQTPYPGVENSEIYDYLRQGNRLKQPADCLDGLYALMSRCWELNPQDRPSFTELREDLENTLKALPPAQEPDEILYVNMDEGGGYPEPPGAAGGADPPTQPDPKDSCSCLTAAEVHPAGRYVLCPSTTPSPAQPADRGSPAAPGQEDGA
Put plainly: NIH-3T3-AXL cellular tyrosine kinase assay (inhibition of AXL phosphorylation). The class given is cell-based. As to conditions: AXL phosphorylation in NIH-3T3-AXL (clone 22) cells, serum-depleted, 2 h with compound, immunoprecipitation / anti-phosphotyrosine blot. The procedure:
3) Inhibitory Activity of Compounds on Axl Phosphorylation in NIH-3T3-AXL Cellular Tyrosine Kinase Assay
The viral supernatant was collected and used to infect target cells NIH3T3 N7. Monoclonal NIH3T3-AXL cell lines stably expressing wtAXL were generated by selecting retrovirally infected cells in medium containing puromycin (2 μg/ml) and subsequent clonal separation.
NIH-3T3-AXL Cellular Kinase Assay
Serial dilutions of compounds were added, and the cells were further incubated or 2 h. […] The clarified cell lysate (10 min at 13000 rpm at 4° C.) were used for immunoprecipitation. Equal amounts of protein were mixed with 2 μg anti-AXL polyclonal antibody (homemade) and 20 μl Protein A sepharose beads, and rotated for 6 hr at 4° C. After immunoprecipitation, the beads were washed three times with 1×HNTG (50 mM HEPES (pH 7.5), 150 mM NaCl, 10% Glycerol, 0.2% Triton X-100). The final pellet was suspended in 20 μl 2× Laemmli buffer, and boiled for 5 min at 100° C. […] The membrane was then incubated with anti-phosphotyrosine antibody (4G10) overnight at 4° C. followed by washing with 1×TBST buffer three times. After incubating membrane with HRP-conjugated anti-mouse secondary antibody for 1 hour at room temperature followed by washing with 1×TBST buffer three times, the proteins were visualized by ECL.

The molecule `COc1cc2nccc(Oc3ccc(NS(=O)(=O)c4cc(Cl)cc(Cl)c4OC)cc3C)c2cc1OC` [Example A127, 3,5-Dichloro-N-[4-(6,7-dimethoxy-quinolin-4-yloxy)-3-methyl-phenyl]-2-methoxy-benzenesulfonamide] returned a melting point of 206 to 208 °C. Also, the IC50 in data set [1] was above 3 µM.
The matching figures for `COc1cc2nccc(Oc3ccc(NS(=O)(=O)c4ccc5c(c4)CC(=O)N5C)cc3)c2cc1OC` [Example A85, 1-Methyl-2-oxo-2,3-dihydro-1H-indole-5-sulfonic acid [4-(6,7-dimethoxy-quinolin-4-yloxy)-phenyl]-amide]: 119 to 122 °C and above 3 µM.
As to `COc1cc2c(Oc3ccc(NS(=O)(=O)c4ccc(F)cc4F)cc3F)ccnc2cc1OCCN1CCOCC1` [Example D28, 2,4-Difluoro-N-{3-fluoro-4-[6-methoxy-7-(2-morpholin-4-yl-ethoxy)-quinolin-4-yloxy]-phenyl}-benzenesulfonamide], the melting point lay within 189 to 191 °C. Besides, in data set [1], the half-inhibitory concentration (IC50) is above 1 µM.
The matching figures for `COc1cc2nccc(Oc3ccc(NS(=O)(=O)Cc4ccccc4)c(F)c3)c2cc1OC` [Example A73, N-[4-(6,7-Dimethoxy-quinolin-4-yloxy)-2-fluoro-phenyl]-C-phenyl-methanesulfonamide]: 204 to 205 °C and above 3 µM.
For `COc1cc2nccc(Oc3ccc(NS(=O)(=O)c4ccc(-c5ccccc5)cc4)cc3OC)c2cc1OC` [Example A142, Biphenyl-4-sulfonic acid [4-(6,7-dimethoxy-quinolin-4-yloxy)-3-methoxy-phenyl]-amide] the same measures were 128 to 131 °C and above 10 µM.
The matching figures for `COc1cc2nccc(Oc3ccc(NS(=O)(=O)c4cccc5cnccc45)cc3)c2cc1OC` [Example A78, Isoquinoline-5-sulfonic acid [4-(6,7-dimethoxy-quinolin-4-yloxy)-phenyl]-amide]: 229 to 231 °C and above 3 µM.
The molecule `COc1cc2nccc(Oc3ccc(NS(=O)(=O)c4ccc(Br)cc4OC(F)(F)F)cc3OC)c2cc1OC` [Example A148, 4-Bromo-N-[4-(6,7-dimethoxy-quinolin-4-yloxy)-3-methoxy-phenyl]-2-trifluoromethoxy-benzenesulfonamide] came in with a melting point of 176 to 177 °C. For the same molecule, the 50% inhibitory concentration (IC50) in data set [1] is above 10 µM.
The matching figures for `COc1cc2nccc(Oc3ccc(NS(=O)(=O)c4cc(F)ccc4F)c(C)c3)c2cc1OC` [Example A151, N-[4-(6,7-Dimethoxy-quinolin-4-yloxy)-2-methyl-phenyl]-2,5-difluoro-benzenesulfonamide]: 259 to 260 °C and above 10 µM.
The matching figures for `COc1cc2c(Oc3ccc(NS(=O)(=O)c4cc(F)ccc4F)c(C)c3)ccnc2cc1OCCN1CCOCC1` [Example D09, 2,5-Difluoro-N-{4-[6-methoxy-7-(2-morpholin-4-yl-ethoxy)-quinolin-4-yloxy]-2-methyl-phenyl}-benzenesulfonamide]: 195 to 196 °C and 2.46 µM.
For `COc1cc2nccc(Oc3ccc(NS(=O)(=O)c4ccc(Cl)s4)c(F)c3)c2cc1OC` [Example A28, 5-Chloro-thiophene-2-sulfonic acid [4-(6,7-dimethoxy-quinolin-4-yloxy)-2-fluoro-phenyl]-amide] the same measures were 187 to 189 °C and 3.9 µM.
Take `Cc1cc(Oc2ccc(NS(=O)(=O)c3ccc(C)s3)c(F)c2)c2cc(F)ccc2n1` [Example B7, 5-Methyl-thiophene-2-sulfonic acid [2-fluoro-4-(6-fluoro-2-methyl-quinolin-4-yloxy)-phenyl]-amide]: the melting point lay in the range of 151 to 153 °C. In addition, the IC50 in data set [1] was above 10 µM.

For orientation: IC50 means the concentration needed to halve the response being measured. For orientation: melting point means the temperature of the solid-liquid transition.
